Measured values reported in patent US4652575A, “2-(ethylene-thio methyl furanyl)amino thiazole derivatives having acid secretion inhibiting activity” (Medosan Industrie Biochimiche Riunite S.p.A., priority 1984, dated 1987).
Read-outs that look alike come from different tables or passages of the source.

What was measured:
histamine H2 receptors = molecular target: T1, histamine H2 receptors (Cavia porcellus, UniProt P47747); assay: Antagonistic activity to the histamine H2 receptors "in vitro" on insulated atrium auricolas of Guinea pig heart; settings: for inhibition at 10 µM / inhibition at 1 µM / inhibition at 0.1 µM: guinea pig, 0.5 h, read-out: Antagonizing activity to histamine H2 receptors; for inhibition at 10 µM: compound 1·10^-5 M/L; for inhibition at 1 µM: compound 1·10^-6 M/L; for inhibition at 0.1 µM: compound 1·10^-7 M/L; for antagonistic action to the histamine H2 receptors (in words): in vitro
T1 construct: tests on insulated atrium auricolas of Guinea pig heart; from tissue; host or cells: isolated guinea pig heart atrium
T1 sequence (P47747 whole entry): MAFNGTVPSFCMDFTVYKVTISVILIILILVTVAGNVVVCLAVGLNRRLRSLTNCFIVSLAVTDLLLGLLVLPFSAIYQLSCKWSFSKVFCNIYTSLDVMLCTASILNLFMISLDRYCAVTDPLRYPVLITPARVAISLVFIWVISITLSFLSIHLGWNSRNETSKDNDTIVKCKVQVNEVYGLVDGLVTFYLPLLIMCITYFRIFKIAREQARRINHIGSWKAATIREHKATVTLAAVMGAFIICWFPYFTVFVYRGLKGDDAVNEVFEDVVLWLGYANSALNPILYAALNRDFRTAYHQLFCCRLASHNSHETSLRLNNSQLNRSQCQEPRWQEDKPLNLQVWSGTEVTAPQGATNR
Procedure: (§1) The preparations were a solution of the substances in 2.5% citric acid for the "in vitro" test and 5% citric acid for the "in vivo" test respectively. Citric acid was diluted in normal physiologic saline at neutral pH.
This activity was evaluated "in vitro" by carrying out tests on insulated atrium auricolas of Guinea pig heart. […] Metering was carried out by placing the preparation into a vessel containing a Ringer-Locke solution wherein pure oxygen was bubbling, at a temperature of 37° C. A response of the organ "in vitro" was first established at cumulative histamine doses of 2.5.10^-7, 5.10^-7, 10^-6, 5.10^-6, 10^-5 M/L. After obtaining two constant lines with histamine at a time interval of one hour from one another, the substances under test were added to the bath and after a 30 minutes contact with the preparation, a new histamine response line in the presence of the substance under test was drawn. The activity was tested at various concentrations of the new compounds (10^-5, 10^-6, 10^-7 and in one case 10^-8 M/L).

gastric secretion = assay: Activity on gastric secretion "in vivo" (volume and total acidity of gastric juice after pylorus tieing, Shay); design: species or system male Wistar rats; settings: for Total acidity gastric juice secretion / Volume gastric juice secretion / change in vivo at 20 mg/kg: 20 mg/kg oral; for change in vivo at 20 mg/kg / ED50: Rattus norvegicus, po; for ED50: per os, 1 hour before pilorus tieing, read-out: DE50 in rat calculated on total acidity (mEq/4 hours); for ability to reduce the gastric acid secretion (in words): volume and total acidity of gastric juice
Procedure: as §1
The ability of the compounds according to the present invention to inhibit the gastric secretion was studied "in vivo" both by evaluating the volume reduction of gastric juice, and by measuring the total acidity of same after administration of the substances under test according to the Takeda method (see the aforementioned literature).
To this end, tests have been made on male Wistar rats of an average weight of 200 g. The animals, 10 for each substance, were placed into individual cages provided with ground grating in order to avoid coprophagy, without food but with free access to water for 24 hours before test. […] Four hours later the animals were sacrificed and the gastric juice was collected, of which the volume expressed in ml and the total acidity expressed in mEq was measured. The gastric juice ([…] ) was titrated with 0.1N NaOH to pH 7 to determine the acid concentration. The total acidity was then calculated as the product of the total volume of gastric juice by the acid concentration.

in vivo = settings: po; for LD50 at 360 h: mouse; for LD50: rat
From the text: The animals were kept under observation by checking mortality and possible pain signs for 15 days from start of test.

[1] = 6 hours before pilorus tieing, read-out: Total acidity gastric juice secretion, Variation %
[2] = 6 hours before pilorus tieing, read-out: Volume gastric juice secretion, Variation %
[3] = 12 hours before pilorus tieing, read-out: Total acidity gastric juice secretion, Variation %
[4] = 12 hours before pilorus tieing, read-out: Volume gastric juice secretion, Variation %
[5] = 24 hours before pilorus tieing, read-out: Total acidity gastric juice secretion, Variation %
[6] = 24 hours before pilorus tieing, read-out: Volume gastric juice secretion, Variation %
[7] = 36 hours before pilorus tieing, read-out: Total acidity gastric juice secretion, Variation %
[8] = 36 hours before pilorus tieing, read-out: Volume gastric juice secretion, Variation %

Structure (SMILES) | inhibition at 10 µM (histamine H2 receptors; histamine 1·10^-5 M/L) | inhibition at 10 µM (histamine H2 receptors; histamine 1·10^-6 M/L) | inhibition at 10 µM (histamine H2 receptors; histamine 2,5·10^-7 M/L) | inhibition at 10 µM (histamine H2 receptors; histamine 5·10^-6 M/L) | inhibition at 10 µM (histamine H2 receptors; histamine 5·10^-7 M/L) | inhibition at 1 µM (histamine H2 receptors; histamine 1·10^-5 M/L) | inhibition at 1 µM (histamine H2 receptors; histamine 1·10^-6 M/L) | inhibition at 1 µM (histamine H2 receptors; histamine 2,5·10^-7 M/L) | inhibition at 1 µM (histamine H2 receptors; histamine 5·10^-6 M/L) | inhibition at 1 µM (histamine H2 receptors; histamine 5·10^-7 M/L) | inhibition at 0.1 µM (histamine H2 receptors; histamine 1·10^-5 M/L) | inhibition at 0.1 µM (histamine H2 receptors; histamine 1·10^-6 M/L) | inhibition at 0.1 µM (histamine H2 receptors; histamine 2,5·10^-7 M/L) | inhibition at 0.1 µM (histamine H2 receptors; histamine 5·10^-6 M/L) | inhibition at 0.1 µM (histamine H2 receptors; histamine 5·10^-7 M/L) | antagonistic action to the histamine H2 receptors (in words) (histamine H2 receptors) | Total acidity gastric juice secretion (gastric secretion; 6 hours before pilorus tieing) | Volume gastric juice secretion (gastric secretion; 6 hours before pilorus tieing) | Total acidity gastric juice secretion (gastric secretion; 12 hours before pilorus tieing) | Volume gastric juice secretion (gastric secretion; 12 hours before pilorus tieing) | also measured
CN(C)Cc1ccc(CSCCNC(=S)NC(=O)c2ccccc2)o1 [Example No. 1, N-benzoyl-N'-(2-(((5-(dimethylamino)methyl-2-furanyl)methyl)-thio)ethyl)-thiourea] | 100% | 100% | 100% | 100% | 100% | 50% | 80% | 100% | 60% | 90% | 20% | 65% | 90% | 35% | 85% | interesting ability | 0,08 mEq/4 hours | 4,1 ml/4 hours | 0,09 mEq/4 hours | 4,0 ml/4 hours | Total acidity gastric juice secretion (gastric secretion; 24 hours before pilorus tieing): 0,13 mEq/4 hours; Volume gastric juice secretion (gastric secretion; 24 hours before pilorus tieing): 5,0 ml/4 hours; Total acidity gastric juice secretion (gastric secretion; 36 hours before pilorus tieing): 0,14 mEq/4 hours; Volume gastric juice secretion (gastric secretion; 36 hours before pilorus tieing): 5,2 ml/4 hours; change in vivo at 20 mg/kg (gastric secretion; [1]): -53%; change in vivo at 20 mg/kg (gastric secretion; [2]): -23%; change in vivo at 20 mg/kg (gastric secretion; [3]): -40%; change in vivo at 20 mg/kg (gastric secretion; [4]): -21%; change in vivo at 20 mg/kg (gastric secretion; [5]): -23%; change in vivo at 20 mg/kg (gastric secretion; [6]): -11%; change in vivo at 20 mg/kg (gastric secretion; [7]): -12%; change in vivo at 20 mg/kg (gastric secretion; [8]): -7%; ED50 (gastric secretion): 3.4 mg/kg; ability to reduce the gastric acid secretion (in words) (gastric secretion): interesting ability; LD50 at 360 h (in vivo): 750 mg/kg; LD50 (in vivo): 1000 mg/kg
CN(C)Cc1ccc(CSCCNc2nc(-c3ccccc3)cs2)o1 [Example No. 3, 2-(2-(((5-(dimethylamino)methyl-2-furanyl)methyl)thio)ethyl)-amino-4-phenylthiazole] | 95% | 100% | 100% | 100% | 100% | 52% | 85% | 100% | 70% | 100% | 20% | 50% | 85% | 30% | 70% | interesting ability | 0,07 mEq/4 hours | 4,0 ml/4 hours | 0,10 mEq/4 hours | 4,1 ml/4 hours | Total acidity gastric juice secretion (gastric secretion; 24 hours before pilorus tieing): 0,12 mEq/4 hours; Volume gastric juice secretion (gastric secretion; 24 hours before pilorus tieing): 4,8 ml/4 hours; Total acidity gastric juice secretion (gastric secretion; 36 hours before pilorus tieing): 0,15 mEq/4 hours; Volume gastric juice secretion (gastric secretion; 36 hours before pilorus tieing): 5,0 ml/4 hours; change in vivo at 20 mg/kg (gastric secretion; [1]): -59%; change in vivo at 20 mg/kg (gastric secretion; [2]): -24%; change in vivo at 20 mg/kg (gastric secretion; [3]): -33%; change in vivo at 20 mg/kg (gastric secretion; [4]): -20%; change in vivo at 20 mg/kg (gastric secretion; [5]): -29%; change in vivo at 20 mg/kg (gastric secretion; [6]): -14%; change in vivo at 20 mg/kg (gastric secretion; [7]): -6%; change in vivo at 20 mg/kg (gastric secretion; [8]): -11%; ED50 (gastric secretion): 2.2 mg/kg; ability to reduce the gastric acid secretion (in words) (gastric secretion): interesting ability; LD50 at 360 h (in vivo): 550 mg/kg; LD50 (in vivo): 900 mg/kg
CN(C)Cc1ccc(CSCCNc2nc(C=Cc3ccccc3)cs2)o1 [Example No. 4, 2-(2-(((5-(dimethylamino)methyl-2-furanyl)methyl)thio)ethyl)amino-4-styryl-thiazole] | 93% | 100% | 100% | 100% | 100% | 38% | 70% | 100% | 60% | 100% | 20% | 45% | 90% | 35% | 70% | interesting ability | 0,09 mEq/4 hours | 3,9 ml/4 hours | 0,08 mEq/4 hours | 4,0 ml/4 hours | Total acidity gastric juice secretion (gastric secretion; 24 hours before pilorus tieing): 0,14 mEq/4 hours; Volume gastric juice secretion (gastric secretion; 24 hours before pilorus tieing): 4,9 ml/4 hours; Total acidity gastric juice secretion (gastric secretion; 36 hours before pilorus tieing): 0,14 mEq/4 hours; Volume gastric juice secretion (gastric secretion; 36 hours before pilorus tieing): 5,3 ml/4 hours; change in vivo at 20 mg/kg (gastric secretion; [1]): -47%; change in vivo at 20 mg/kg (gastric secretion; [2]): -26%; change in vivo at 20 mg/kg (gastric secretion; [3]): -47%; change in vivo at 20 mg/kg (gastric secretion; [4]): -21%; change in vivo at 20 mg/kg (gastric secretion; [5]): -18%; change in vivo at 20 mg/kg (gastric secretion; [6]): -13%; change in vivo at 20 mg/kg (gastric secretion; [7]): -12%; change in vivo at 20 mg/kg (gastric secretion; [8]): -5%; ED50 (gastric secretion): 3.2 mg/kg; ability to reduce the gastric acid secretion (in words) (gastric secretion): interesting ability; LD50 at 360 h (in vivo): 2900 mg/kg; LD50 (in vivo): 3000 mg/kg
CN(C)Cc1ccc(CSCCNc2nc(-c3ccc(-c4ccccc4)cc3)cs2)o1 [Example No. 5, 2-(2-(((5-(dimethylamino)methyl-2-furanyl)methyl)thio)ethyl)amino-4-(4-biphenyl)-thiazole] | 100% | 100% | 100% | 100% | 100% | 45% | 70% | 100% | 60% | 90% | 25% | 65% | 95% | 40% | 85% | interesting ability | 0,08 mEq/4 hours | 3,7 ml/4 hours | 0,08 mEq/4 hours | 3,8 ml/4 hours | Total acidity gastric juice secretion (gastric secretion; 24 hours before pilorus tieing): 0,13 mEq/4 hours; Volume gastric juice secretion (gastric secretion; 24 hours before pilorus tieing): 4,9 ml/4 hours; Total acidity gastric juice secretion (gastric secretion; 36 hours before pilorus tieing): 0,13 mEq/4 hours; Volume gastric juice secretion (gastric secretion; 36 hours before pilorus tieing): 4,4 ml/4 hours; change in vivo at 20 mg/kg (gastric secretion; [1]): -53%; change in vivo at 20 mg/kg (gastric secretion; [2]): -30%; change in vivo at 20 mg/kg (gastric secretion; [3]): -47%; change in vivo at 20 mg/kg (gastric secretion; [4]): -25%; change in vivo at 20 mg/kg (gastric secretion; [5]): -23%; change in vivo at 20 mg/kg (gastric secretion; [6]): -13%; change in vivo at 20 mg/kg (gastric secretion; [7]): -19%; change in vivo at 20 mg/kg (gastric secretion; [8]): -21%; ED50 (gastric secretion): 1.6 mg/kg; ability to reduce the gastric acid secretion (in words) (gastric secretion): interesting ability; LD50 at 360 h (in vivo): 2300 mg/kg; LD50 (in vivo): 3300 mg/kg
